Source: patent US6372800B1, “Benzene compound and pharmaceutical use thereof” (Mitsubishi Pharma Corporation, priority 1994, dated 2002)
Where “and” joins values, the source holds several entries; their conditions need not be identical. Equal values may be shown once.

How the values were obtained:
[1] = system: host versus graft reaction in rats; experiment: Inhibitory effect on host versus graft (HvG) reaction in rats (popliteal lymph node weight); format: in vivo, rat; conditions: administered daily for 4 days after the injection with cells intravenously or orally, difference of right and left popliteal lymph node weights
Experimental: (§1) The spleen is removed from male WKAH rats at ages of 4 to 5 weeks old and is used to obtain a single cell suspension of spleen cells using RPMI 1640 medium (containing kanamycin sulfate at […], penicillin G potassium at 100 unit/ml, N-2-hydroxyethylpiperazine-N-2-ethane sulfate at 10 mM, 0.1% sodium bicarbonate, and L-glutamine at 2 mM). After the treatment of lysing of red blood cells, the cells are washed at three times and are adjusted at 5×10^7 cells/ml with physiological saline. By injection into right hind foot pad of 100 ul of spleen cell suspension, the host versus graft reaction (HvG reaction) are induced. After 4 days of the injection with cells, both of right and left popliteal lymph nodes are removed and the weight of them are measured. The test compounds are examined by difference of the lymph node weights between right and left as a indicator of HvG reaction. In addition, after 4 days of the injection with cells, blood is obtained from tail vein of the rats and the number of peripheral white blood cells are measured using automatic hemocytometer for animal (MEK-5158, Nihonkouden Co. Ltd.). Test compounds are administered daily for 4 days after the injection with cells intravenously or orally.
(§2) The value in the table represents minimum effective dose (mg/kg).

[2] = system: peripheral white blood cells; experiment: Reduction of peripheral white blood cells in rats of the HvG reaction test; format: in vivo, rat; conditions: for Reduction of peripheral white blood cells, minimum effective dose: administered daily for 4 days intravenously or orally, blood from tail vein 4 days after the injection with cells; for reduction of peripheral white blood cell number relative to immunosuppressive dose (assessment in words): conclusion drawn from Table 1 (HvG test)
Experimental: as §1, §2

Row | Reduction of peripheral white blood cells, minimum effective dose [2] [mg/kg] | melting point | Structure (SMILES) | Inhibitory effect on HvG reaction, minimum effective dose [1] [mg/kg] | reduction of peripheral white blood cell number relative to immunosuppressive dose (assessment in words) [2]
1 |  | 90 to 91 °C | CCCCCCCOc1ccc(CCC(CO)(CCC)NC(=O)c2cc([N+](=O)[O-])cc([N+](=O)[O-])c2)cc1 (stereo not drawn) [Working Example 32] |  | 
2 | 0.03 | 108 to 110 °C | CCCCCCCOc1ccc(CCC(N)(CC)CO)cc1.Cl (stereo not drawn) [Compound of experiment 27, 2-Amino-2-ethyl-4-(4-heptyloxyphenyl)butanol Hydrochloride] | 0.03 | weakness of reduction of peripheral white blood cell number
3 |  | 77 to 79 °C | CCCCCCCOc1ccc(CCC(CO)(CCO)NC(=O)c2cc([N+](=O)[O-])cc([N+](=O)[O-])c2)cc1 (stereo not drawn) [Working Example 116] |  | 
4 |  | 114 to 115 °C and 115 to 116 °C | CCCCCCCOc1ccc(CCC(CO)(CCC)NC(=O)c2cc([N+](=O)[O-])cc([N+](=O)[O-])c2)cc1 (racemic) [Working Example 29] |  | 
5 | 0.03 | 71 to 73 °C | CCCCCCCCCc1ccc(CCCC(N)(CO)CCO)cc1 (stereo not drawn) [Compound of experiment 3, 2-Amino-2-[3-(4-nonylphenyl)propyl]butane-1,4-diol] | 0.03 | weakness of reduction of peripheral white blood cell number
6 | 3 |  | CCCCCCCOc1ccc(CC[C@@](N)(CO)CCC)cc1.Cl [Compound of experiment 31, (R)-2-amino-2-[2-(4-heptyloxyphenyl)ethyl]pentanol Hydrochloride] | <0.3 | weakness of reduction of peripheral white blood cell number
7 |  | 68 to 71 °C | CCCCCCCc1ccc(CCCC(N)(CO)CCO)cc1 (stereo not drawn) [Working Example 4, 2-Amino-2-[3-(4-heptylphenyl)propyl]butane-1,4-diol] |  | 
8 | 3 |  | CCCCCCCOc1ccc(CCC(N)(CO)C(C)C)cc1.CCCCCCCOc1ccc(CCC(N)(CO)C(C)C)cc1.Cl.Cl.O (stereo not drawn) [Compound of experiment 60, 2-Amino-2-isopropyl-4-(4-heptyloxyphenyl)butanol Hydrochloride 1/2 Hydrate] | 1 | weakness of reduction of peripheral white blood cell number
9 |  | 150 to 151 °C | CCCCCCCOc1ccc(CCC(C)(CO)NC(=O)c2cc([N+](=O)[O-])cc([N+](=O)[O-])c2)cc1 (racemic) |  | 

Continued, compound first:

Row | Structure (SMILES) | Reduction of peripheral white blood cells, minimum effective dose [2] [mg/kg] | melting point | Inhibitory effect on HvG reaction, minimum effective dose [1] [mg/kg] | reduction of peripheral white blood cell number relative to immunosuppressive dose (assessment in words) [2]
10 | CCCCCCCCc1ccc(CCC(N)(CO)CO)cc1.Cl [FTY720, 2-amino-2-[2-(4-octylphenyl)ethyl]propane-1,3-diol hydrochloride, reference compound] | 0.03 |  | 0.1 | 
11 | CCCCCCCCCCCCc1ccc(CCC(CCOC(C)=O)(COC(C)=O)NC(C)=O)cc1 (stereo not drawn) [Working Example 16, 3-Acetamido-3-acetoxymethyl-5-(4-dodecylphenyl)pentyl Acetate] |  | 75 to 77 °C |  | 
12 | CCCCCCCOc1ccc(CCC(C)(N)CO)cc1.Cl (stereo not drawn) [Compound of experiment 1, 2-Amino-4-(4-heptyloxyphenyl)-2-methylbutanol Hydrochloride] | 0.03 |  | 0.03 | weakness of reduction of peripheral white blood cell number
13 | CCCCCCCOc1ccc(CCC(C)(N)CO)cc1OC (stereo not drawn) [Compound of experiment 66, 2-Amino-4-(4-heptyloxy-3-methoxyphenyl)-2-methylbutanol 1/10 Hydrate] | 3 |  | 3 | weakness of reduction of peripheral white blood cell number
14 | CCCCCCCOc1ccc(CCC(CO)(CCO)NC(=O)c2cc([N+](=O)[O-])cc([N+](=O)[O-])c2)cc1 (stereo not drawn) [Working Example 115] |  | 78 to 79 °C |  | 
15 | CCCCCCCC(=O)c1ccc(CCC(CCOC(C)=O)(CCOC(C)=O)NC(C)=O)cc1 [Working Example 100, 3-Acetamido-5-acetoxy-3-[2-(4-octanoylphenyl)ethyl]pentyl Acetate] |  | 83 to 86 °C |  | 
